“Also recorded” adds a separate entry of the source. Starred links: 1 amine or outer side, 2 acyl side, 3 side chain; linkers in the order of their positions; H or OH if unused. Positions of bridges follow the written chain, without caps; N, C: chain ends. Non-standard residues stand in square brackets, D forms with d. Residues, ends and D or L forms follow the SMILES beside them. Chains are numbered I, II in the order given. Actinocin(9to1) = Cc1c2oc3c(C)ccc(C(=O)[*:1])c3nc-2c(C(=O)[*:2])c(N)c1=O; NMeV = CN[C@H](C(=O)O)C(C)C; Sar = CNCC(=O)O
System: Mycoplasma hyorhinis
Assay: Plaque assay of the infectious agent on Vero cell monolayers with antibiotics
Format: cell-based
Conditions: ciprofloxacin 0.5 mg/ml, doxicycline 1 mg/ml, antibiotic added for 24 hours or 7 days, assay sensitivity 10 pfu/ml, FIG. 12

| Compound | Plaque formation induced by the infectious agent |
| --- | --- |
| C[C@H]1c2cccc(O)c2C(O)=C2C(=O)[C@]3(O)C(O)=C(C(N)=O)C(=O)[C@@H](N(C)C)[C@@H]3[C@@H](O)[C@@H]21 [doxicyclin] | prevented plaque formation; also recorded: inhibited |
| Cc1c2oc3c(C)ccc(C(=O)N[C@@H]4C(=O)N[C@H](C(C)C)C(=O)N5CCC[C@H]5C(=O)N(C)CC(=O)N(C)[C@@H](C(C)C)C(=O)O[C@@H]4C)c3nc-2c(C(=O)N[C@@H]2C(=O)N[C@H](C(C)C)C(=O)N3CCC[C@H]3C(=O)N(C)CC(=O)N(C)[C@@H](C(C)C)C(=O)O[C@@H]2C)c(N)c1=O [actinomycin D] (I: T[dV]P[Sar][NMeV] / II: T[dV]P[Sar][NMeV]; ester I:1-I:C, II:1-II:C; linker I:N-II:N via Actinocin(9to1)) | prevented plaque formation |

Source: patent US20040091935A1, “Strains of Mycoplasma hyorhinis as causative agent for systemic sclerosis” (priority 2002, published 2004)
